# Results from patent US20030224390A1, “Method of identifying conformation-sensitive binding peptides and uses thereof” (Karo Bio AB, priority 2000, published 2003).
# Key:
# [1] = molecular target: T1, Glucocorticoid Receptor (GR) (Homo sapiens, UniProt P04150); experiment: Yeast based two-hybrid system with full-length GR (Example 503); type: cell-based
# T1 construct: peptides to GR in the yeast based system using full-length receptor; expressed in transfected cells; host or cells: yeast
# T1 sequence (P04150 1-777): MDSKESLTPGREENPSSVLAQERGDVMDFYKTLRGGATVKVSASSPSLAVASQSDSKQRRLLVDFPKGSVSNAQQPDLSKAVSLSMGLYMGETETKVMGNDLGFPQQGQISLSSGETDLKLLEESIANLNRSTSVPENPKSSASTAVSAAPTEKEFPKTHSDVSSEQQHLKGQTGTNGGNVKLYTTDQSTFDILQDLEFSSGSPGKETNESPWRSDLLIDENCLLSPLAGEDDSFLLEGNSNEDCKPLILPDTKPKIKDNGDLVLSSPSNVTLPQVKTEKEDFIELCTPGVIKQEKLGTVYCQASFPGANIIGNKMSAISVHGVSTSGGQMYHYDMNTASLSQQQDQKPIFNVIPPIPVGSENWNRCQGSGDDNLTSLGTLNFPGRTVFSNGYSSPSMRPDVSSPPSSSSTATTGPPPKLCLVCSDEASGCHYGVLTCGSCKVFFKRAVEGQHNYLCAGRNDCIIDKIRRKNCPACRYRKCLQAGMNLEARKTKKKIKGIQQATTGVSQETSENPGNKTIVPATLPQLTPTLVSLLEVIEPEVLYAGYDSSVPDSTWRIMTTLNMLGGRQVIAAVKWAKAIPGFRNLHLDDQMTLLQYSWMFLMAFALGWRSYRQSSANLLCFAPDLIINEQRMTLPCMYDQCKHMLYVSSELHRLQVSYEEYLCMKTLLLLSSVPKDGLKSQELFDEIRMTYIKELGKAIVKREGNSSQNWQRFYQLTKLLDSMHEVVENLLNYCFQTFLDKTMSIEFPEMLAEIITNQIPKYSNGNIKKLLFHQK
# Description: (§1) We have performed a limited amount of in vivo screenings for peptides to GR in the yeast based system using full-length receptor and either dexamethasone or medroxyprogesterone acetate as ligands. We have a single peptide sequence that we have followed up on based on its specificity profile in yeast. This peptide was isolated on MPA liganded GR, and is termed GRMPA. Its sequence is as follows: […] (SEQ ID NO:268).
# glucocorticoid receptor = molecular target: T2, glucocorticoid receptor (Homo sapiens, UniProt P04150); experiment: Mammalian cell based peptide/GR interaction assay in Huh-7 cells, 96-/384-well luciferase
# T2 construct: expressed in transfected cells; host or cells: Huh-7 cells
# T2 sequence (P04150 1-777): T1 sequence (P04150 1-777)
# Description: as §1
# We have isolated numerous peptides using phage display to the GR ligand binding domain and have formatted cell based assays in mammalian cells for screening large compound sets. We have formatted the assay as stated above for 96-well plates and for 384-well plates. To format the assay to 384-well plates the number of cells per well were scaled down to 5,000 Huh-7 cells per well. Similar ratios of DNA constructs and lipection reagents were used in both assays for transfections prior to seeding the cells into the assay plates. We have also carried out a screen of a 60,000 compound set with one of the phage display isolated peptides in this mammalian cell based format. This peptide interacts with the glucocorticoid receptor in the presence of both agonists (e.g. fluticasone propionate and dexamethasone) and antagonists (RU486). For the compound screen cells were transfected in suspension with DNA constructs as described above prior to seeding 5,000 cells per well. […]
# androgen receptor [2] = molecular target: T3, androgen receptor (Homo sapiens, UniProt P10275); experiment: Yeast two-hybrid screening of unbiased X15 peptide library, ligand induced β-galactosidase activity (FIG. 3, Table 503); type: cell-based; set-up: expressed in transfected cells; host or cells: Saccharomyces cerevisiae PJ69-4α; ligand induced β-galactosidase activity, No Lig / ligand induced β-galactosidase activity, DHT / ligand induced β-galactosidase activity, CPA / ligand induced β-galactosidase activity, RU / ligand induced β-galactosidase activity, Test / ligand induced β-galactosidase activity, MPA: unit not given here
# T3 sequence (P10275 1-920): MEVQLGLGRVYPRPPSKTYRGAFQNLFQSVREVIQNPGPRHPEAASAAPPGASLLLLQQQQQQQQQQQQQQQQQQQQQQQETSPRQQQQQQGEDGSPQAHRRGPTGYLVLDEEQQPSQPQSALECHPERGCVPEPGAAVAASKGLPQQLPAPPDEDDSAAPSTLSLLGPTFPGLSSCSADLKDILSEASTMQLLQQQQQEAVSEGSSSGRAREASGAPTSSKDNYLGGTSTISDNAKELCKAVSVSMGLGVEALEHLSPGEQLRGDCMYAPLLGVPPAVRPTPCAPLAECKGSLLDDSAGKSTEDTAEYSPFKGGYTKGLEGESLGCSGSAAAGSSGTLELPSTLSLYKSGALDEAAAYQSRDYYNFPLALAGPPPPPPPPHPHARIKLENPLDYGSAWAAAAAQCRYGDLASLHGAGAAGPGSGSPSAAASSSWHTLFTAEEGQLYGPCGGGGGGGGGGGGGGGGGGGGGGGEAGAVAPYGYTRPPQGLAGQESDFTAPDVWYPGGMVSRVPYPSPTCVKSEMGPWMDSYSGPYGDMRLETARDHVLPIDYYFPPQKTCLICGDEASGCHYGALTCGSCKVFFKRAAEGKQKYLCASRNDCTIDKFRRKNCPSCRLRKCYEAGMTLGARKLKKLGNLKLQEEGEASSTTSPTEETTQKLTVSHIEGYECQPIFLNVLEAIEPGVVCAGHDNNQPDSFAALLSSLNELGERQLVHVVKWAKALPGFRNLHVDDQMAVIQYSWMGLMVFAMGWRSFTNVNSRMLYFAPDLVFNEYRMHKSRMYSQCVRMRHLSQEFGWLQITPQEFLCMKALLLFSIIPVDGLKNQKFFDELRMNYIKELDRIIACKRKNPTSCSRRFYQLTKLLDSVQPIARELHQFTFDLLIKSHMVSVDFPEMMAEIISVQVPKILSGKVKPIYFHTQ
# Description: Our library contained predominantly 15 random amino acid residues/peptide in order to identify motifs that might interact with nuclear receptor domains. If ligand is provided to the cells, one can screen for peptides that interact with the ligand-bound receptor. […] Included at the ends of the oligonucleotide were the synthetic restriction endonuclease cleavage sites, EcoRI or Mfe I (5′ end) and Sal I (3′ end). Oligonucleotides were annealed, then cleaved with excess restriction endonuclease and purified on agarose gels. The purified set of oligonucleotides was subcloned as an in-frame carboxy-terminal fusion to a Gal4 DNA binding domain (plasmid vector pMA424 derivative). […] The transformation mix was divided and grown on plates of selective media containing ligand and 25 mM 3-aminotriazole at 30° C. until colonies appeared in 3-7 days. […] Dihydrotestosterone (DHT) and medroxyprogesterone (MPA) were added to the media at 100 nM to identify peptides that interact with the receptor in the presence of ligand. After colonies appeared they were picked and dispersed into individual wells of a 96-well plate containing rich media (YPD).
# To determine ligand dependence, two microliter aliquots were removed from the cell suspension, and arrayed and spotted onto each of two rectangular agar plates, one with 100 nM ligand and one without ligand. Growth was monitored daily.
# A secondary test of ligand dependent activation was performed using the integrated GAL4-driven lacZ gene. Cell suspensions of the initial positive clones were diluted 20-fold into 20 microliters of rich media in a microplate and grown overnight at 30° C. in the presence and absence of ligand. Microplates were centrifuged for 5 minutes at 3000 rpm in a swinging table top centrifuge to pellet the yeast cells, and the overlying media was aspirated. […] An OD650 density determination was made to normalize the β-galactosidase activity. β-galactosidase activity was monitored following the addition of buffer containing chlorophenol red-β-galactopyranoside (CPRG) (Boehringer Mannheim) substrate at a final concentration of 0.5 mM. […] The maximum slope value of this measurement was normalized to cell density from the initial OD650 value, and the relative ligand dependence of β-galactosidase was determined by comparing the values plus and minus ligand.
# In FIG. 3, all of these ligands were tested. The plasmids from true positives were extracted using standard yeast extraction protocols and re-transformed to verify the positive phenotype.
# androgen receptor [3] = molecular target: T3, androgen receptor; type: cell-based; set-up: expressed in transfected cells
# Description: We used a mammalian two-hybrid system to determine specificities of the AR-binding peptides previously identified, through screening of the aforementioned yeast library, as ligand-dependent in their binding activity. Ligand was provided to the cells so the interaction could be observed. The human hepatoma cell line, Huh-7, was used as the recipient of two-hybrid vectors, pM and pVP16 (Clontech) (FIGS. 6A and 6B), containing fusions with peptide and AR, respectively. According to Clontech literature, the Clontech vectors pM and VP16 generate fusions of protein X with the GAL4 DNA-BD and fusions of protein Y with the VP16AD, in the Mammalian MM Two-Hybrid Assay Kit (#K1602-1). (Note: pM and VP16 contain unique cloning sites in the same order and reading frame as the DNA-BD and AD, respectively, vectors in the yeast […] Two-Hybrid Systems.) A third vector, pG5CAT, provides a CAT reporter gene under the control of a GAL4-responsive element and minimal promoter of the adenovirus E1b. The three vectors are cotransfected into any suitable mammalian host cell line by standard methods. The interaction between proteins X and Y is then assayed by measuring CAT gene expression by any standard method. In the absence of activation (i.e., no protein-protein interaction), the minimal E1b promoter will not express significant levels of CAT.
# Briefly, cells are seeded in a 24-well culture plate to a density of 50-80% confluence in phenol red-free media containing charcoal-dextran stripped fetal bovine serum (10%). Following incubation overnight, cells are transfected with plasmids pM-peptide, pVP16-AR, pCMV-b-gal, and p5XGAL-Luc3 DNAs using lipofectamine 2000 (LifeTech) according to the manufacturer's protocol. Transfections are allowed to proceed for 6 hours and the transfection media is aspirated and replaced with recovery media for 18 hours. Following the recovery period, cells are treated with compound for 24 hours prior to cell harvesting. Cells are washed with PBS and then lysed using the lysis buffer from the Galacto-Light Plus β-galactosidase assay kit (Tropix). Assays for luciferase and β-galactosidase were performed as described by the manufacturer. Peptide/AR interactions are described in terms of the luciferase activity normalized for transfection efficiency using β-galactosidase activity (see FIG. 4A). Two types of useful information arose from these methods: 1) we generated a panel of useful peptide probes to analyze the conformational state of AR, and 2) we “fingerprinted” AR modulators with respect to AR conformation (FIG. 4B). […] FIG. 4B is the converse of 4A. It compares the ability of six ligands (DHT, MPA, CYP, RU486, FLUT and DHEAs to interact with AR in the presence of each of four peptides (D30, 5G11, B8H3 and […]). Thus, it is a “fingerprint” of each of the six ligands using a four peptide panel. (Note that “1269” and D30” refer to the same peptide.)
# androgen receptor [4] = molecular target: T3, androgen receptor; type: cell-based; set-up: expressed in transfected cells; remark: listed apart in the source
# [5] = molecular target: T4, ER β (immobilized, in vitro phage assays), Q92731; experiment: phage ELISA; ICI 182,780 1 µM
# T4 chain: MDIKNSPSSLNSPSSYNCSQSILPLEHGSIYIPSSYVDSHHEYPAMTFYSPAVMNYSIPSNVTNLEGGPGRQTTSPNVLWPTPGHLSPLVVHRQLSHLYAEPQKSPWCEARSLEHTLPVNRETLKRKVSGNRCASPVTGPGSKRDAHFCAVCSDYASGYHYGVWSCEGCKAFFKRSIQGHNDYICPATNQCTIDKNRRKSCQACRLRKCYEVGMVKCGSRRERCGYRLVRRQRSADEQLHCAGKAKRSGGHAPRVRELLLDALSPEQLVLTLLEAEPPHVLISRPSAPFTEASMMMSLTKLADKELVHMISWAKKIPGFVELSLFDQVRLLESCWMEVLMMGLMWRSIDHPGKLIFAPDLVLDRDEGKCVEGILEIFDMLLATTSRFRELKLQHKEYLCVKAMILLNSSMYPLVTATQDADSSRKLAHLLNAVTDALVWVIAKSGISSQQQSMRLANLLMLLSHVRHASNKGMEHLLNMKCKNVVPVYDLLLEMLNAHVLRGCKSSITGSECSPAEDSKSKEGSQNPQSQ
# [6] = molecular target: T4, ER β (immobilized, in vitro phage …); experiment: phage ELISA; raloxifene 1 µM
# [7] = molecular target: T4, ER β (immobilized, in vitro phage …); experiment: phage ELISA; 4-OH tamoxifen 1 µM
# [8] = molecular target: T4, ER β (immobilized, in vitro phage …); experiment: phage ELISA; clomiphene 10 µM
molecule,measurement,setting,value
EFVARYGQLLGWRHPCS [GRMPA],Interaction with GR in the presence of partial agonists,"[1]; MPA, cortivazol, and deoxycorticosterone",interacted
same,Interaction with GR in the presence of antagonists,[1]; RU486,interacted
same,Interaction with GR in the presence of full agonists,[1]; fluticasone propionate and dexamethasone,not
same,"Interaction with GR in the presence of all ligands (agonists, partial agonists, and antagonists)",glucocorticoid receptor,interacted
EFQQCMCAEVKSWLGGSLDLQPS* [B8E9],Fold induction,"androgen receptor [2]; untitled table before Table 503, values match DHT / No Lig of Table 503",4
same,"ligand induced β-galactosidase activity, CPA","androgen receptor [2]; yeast two-hybrid, ligand CPA",0.5635
same,"ligand induced β-galactosidase activity, DHT","androgen receptor [2]; yeast two-hybrid, ligand DHT",1.75
same,"ligand induced β-galactosidase activity, RU","androgen receptor [2]; yeast two-hybrid, ligand RU",0.8
same,"ligand induced β-galactosidase activity, No Lig","androgen receptor [2]; yeast two-hybrid, no ligand",0.4989
same,"luciferase normalized to β-galactosidase, CYP.",androgen receptor [3],16.02
same,"luciferase normalized to β-galactosidase, DHT","androgen receptor [3]; mammalian two-hybrid, Huh-7 cells, ligand DHT",19.64
same,"luciferase normalized to β-galactosidase, MPA","androgen receptor [3]; mammalian two-hybrid, Huh-7 cells, ligand MPA",18.51
same,"luciferase normalized to β-galactosidase, RU486","androgen receptor [3]; mammalian two-hybrid, Huh-7 cells, ligand RU486",10.1916
same,"luciferase normalized to β-galactosidase, no compound","androgen receptor [3]; mammalian two-hybrid, Huh-7 cells, no compound",0.2091
same,Binding to the androgen receptor in the presence of both agonists and known antagonists,androgen receptor [4]; ligand present,displays binding
same,Binding to the androgen receptor in the absence of ligand,androgen receptor [4]; no ligand,not
SSNHQSSRLIELLSR (modifications not checked) [Phage # 4 (Table 2)],phage ELISA grade,[5],0
same,phage ELISA grade,[6],0
same,phage ELISA grade,[7],0
same,phage ELISA grade,[8],0
